Where only a bound is given, the exact number is not on record here.

The assay deals with T1, human recombinant GPR65 (Homo sapiens, UniProt Q8IYL9).
T1 construct: host or cells: 1321N1 human astrocytoma cells (1321N1-hrGPR65)
T1 sequence (Q8IYL9 whole entry): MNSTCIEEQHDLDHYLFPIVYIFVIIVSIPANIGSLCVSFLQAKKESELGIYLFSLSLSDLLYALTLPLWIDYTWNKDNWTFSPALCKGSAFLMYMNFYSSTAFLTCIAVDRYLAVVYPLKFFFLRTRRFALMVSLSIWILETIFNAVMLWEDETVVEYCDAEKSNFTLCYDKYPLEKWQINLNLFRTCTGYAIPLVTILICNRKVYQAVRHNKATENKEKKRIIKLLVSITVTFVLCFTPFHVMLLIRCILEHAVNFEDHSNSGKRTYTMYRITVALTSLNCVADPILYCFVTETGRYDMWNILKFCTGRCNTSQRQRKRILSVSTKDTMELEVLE
As to the kind of experiment: Human GPR65 cAMP HTRF antagonist assay. Format: cell-based. The settings on record: 1321N1-hrGPR65 cells, assay pH 7.2, cAMP HTRF; read-out: hGPR65 IC50. From the text:
The “Human GPR65 cyclic adenosine monophosphate (cAMP) Homogeneous Time Resolved Fluorescence (HTRF) antagonist assay”, or simply “cAMP assay”, as described in the accompanying examples, can be used to measure the potency of GPR65 modulators, which is expressed as the concentration of compound required to reduce the increase in cAMP concentration upon GPR65 activation by 50% (i.e. an IC50).
Human GPR65 Cyclic Adenosine Monophosphate (cAMP) Homogeneous Time Resolved Fluorescence (HTRF) Antagonist Assay Procedure
IC50data was obtained by the following procedure:
1321N1 human astrocytoma cells stably expressing human recombinant GPR65 (1321N1-hrGPR65 cells, EuroscreenFast) were cultured according to the vendor's instructions.
Compounds were tested for their ability to antagonise GPR65, through measuring the concentration of cytoplasmic cAMP following treatment of the cells at a pH of 7.2 to activate GPR65 signalling and addition of the compound to be tested. The extent to which the expected rise in cAMP concentration upon GPR65 activation was suppressed by the added compound is indicative of its potency. The assay was carried out according to EuroscreenFast assay Methodology as follows.
On the day of the assay, test compounds were added to 384-well, low volume, white microtiter plates by acoustic dispensing. KRH buffer (5 mM KCl, 1.25 mM MgSO4, 124 mM NaCl, 25 mM HEPES, 13.3 mM Glucose, 1.25 mM KH2PO4 and 1.45 mM CaCl2) was adjusted to pH 6.5, pH 7.6 and pH 8.4 by adding NaOH. 1321N1-hGPR65 cells were rapidly thawed and diluted in KRH, pH 7.6 prior to centrifugation at 300×g for 5 min and resuspension in assay buffer (KRH, pH 7.6, supplemented with 1 mM 3-isobutyl-1-methylxanthine (IBMX) and 200 μM ethylenediaminetetraacetic acid (EDTA)). Cells were added to assay plates at a density of 2,000 cells per well in a volume of […]. Assay plates were briefly centrifuged at 100×g and then incubated at room temperature for 30 min. Cells were stimulated by the addition of 5 μL KRH, pH 6.5, to achieve an assay pH of 7.2, while control wells received […] KRH, pH 8.4 to achieve an assay pH of 7.9. Assay plates were briefly centrifuged at 100×g and then incubated at room temperature for 30 min.
Accumulation of cAMP was detected by cAMP HTRF kit (Cisbio). d2-labeled cAMP and cryptate-labeled anti-cAMP antibody in Lysis and Detection Buffer (Cisbio) were added to assay plates, and the plates were incubated at room temperature for 1 h. HTRF measurements were performed using a Pherastar FSX instrument. Acceptor and donor emission signals were measured at 665 nm and 620 nm, respectively, and HTRF ratios were calculated as signal665 nm/signal620 nm×104. Data were normalised to high and low control values and fitted with 4-parameter logistic regression to determine hGPR65 IC50 values for the test compounds, which are shown in Table 1.
(In general: Time-resolved FRET reads energy transfer from a long-lived donor to a nearby acceptor.)
On to `O=C(Nc1cc(Cl)c(Cl)cn1)N1C2CCC1[C@H](F)c1c2ccnc1F` (mixture of isomers) [Compound 35, (±)(9S)-N-(4,5-dichloropyridin-2-yl)-1,9-difluoro-6,7,8,9-tetrahydro-5H-5,8-epiminocyclohepta[c]pyridine-10-carboxamide], for which the half-inhibitory concentration (IC50) (commonly the concentration that gives 50% inhibition) is less than 500 nM.

Regarding `O=C(Nc1cc(Cl)c(Cl)cc1F)N1[C@H]2CC[C@@H]1c1cc[n+]([O-])cc1C2` [Compound 66, (5R,8S)-10-((4,5-dichloro-2-fluorophenyl)carbamoyl)-6,7,8,9-tetrahydro-5H-5,8-epiminocyclohepta[c]pyridine 2-oxide], the IC50 was less than 500 nM.

As to `O=C(Nc1cc(Cl)c(-c2cnc(OCC(F)(F)F)c(F)c2)cc1F)N1[C@H]2CC[C@@H]1c1c[nH]c(=O)cc1C2` [Compound 11, (6S,9R)-N-(5-chloro-2-fluoro-4-(5-fluoro-6-(2,2,2-trifluoroethoxy)pyridin-3-yl)phenyl)-3-oxo-3,5,6,7,8,9-hexahydro-2H-6,9-epiminocyclohepta[c]pyridine-10-carboxamide], the IC50 is less than 500 nM.

Take `CN(CC(F)(F)F)c1ccc(-c2cc(F)c(NC(=O)N3[C@H]4CC[C@@H]3c3c[nH]c(=O)cc3C4)cc2Cl)cn1` [Compound 8, (6S,9R)-N-(5-chloro-2-fluoro-4-(6-(methyl(2,2,2-trifluoroethyl)amino)pyridin-3-yl)phenyl)-3-oxo-3,5,6,7,8,9-hexahydro-2H-6,9-epiminocyclohepta[c]pyridine-10-carboxamide]: the IC50 was less than 500 nM.

Turning to `O=C(Nc1cc(Cl)c(-c2ccc(O[C@@H]3CCN(CC(F)(F)F)C3)nc2)cc1F)N1[C@H]2CC[C@@H]1c1c[nH]c(=O)cc1C2` (single isomer, unassigned) [Compound 77], the IC50 is less than 500 nM.

Turning to `O=C(Nc1cc(Cl)c(COc2cccc(OC3CCCC3)n2)cc1F)N1[C@H]2CC[C@@H]1c1n[nH]c(=O)cc1C2` [Compound 59, (6S,9R)-N-(5-chloro-4-(((6-(cyclopentyloxy)pyridin-2-yl)oxy)methyl)-2-fluorophenyl)-3-oxo-3,5,6,7,8,9-hexahydro-2H-6,9-epiminocyclohepta[c]pyridazine-10-carboxamide], the IC50 is less than 500 nM.

Turning to `O=C(NC12CC(c3ccc(OCC(F)(F)F)nc3)(C1)C2)N1[C@H]2CC[C@@H]1c1n[nH]c(=O)cc1C2` [Compound 7, (6S,9R)-3-Oxo-N-(3-(6-(2,2,2-trifluoroethoxy)pyridin-3-yl)bicyclo[1.1.1]pentan-1-yl)-3,5,6,7,8,9-hexahydro-2H-6,9-epiminocyclohepta[c]pyridazine-10-carboxamide], the IC50 was 500 to 5000 nM.

Take `O=C(Nc1cc(Cl)c(C(F)(F)F)cn1)N1C2CCC1C(F)(F)c1c2ccnc1F` (racemic) [Compound 34, (±)-N-(4-chloro-5-(trifluoromethyl)pyridin-2-yl)-1,9,9-trifluoro-6,7,8,9-tetrahydro-5H-5,8-epiminocyclohepta[c]pyridine-10-carboxamide]: the IC50 is less than 500 nM.

As to `O=C(Nc1cc(Cl)c(-c2ccc(O[C@H]3CCN(CC(F)(F)F)C3)nc2)cc1F)N1[C@H]2CC[C@@H]1c1c[nH]c(=O)cc1C2` (single isomer, unassigned) [Compound 78], the IC50 was less than 500 nM.

For `O=C(Nc1cc(Cl)c(-c2ccc(OCC34CNC(C3)C4)nc2)cc1F)N1[C@H]2CC[C@@H]1c1c[nH]c(=O)cc1C2` [Compound 60, (6S,9R)-N-(4-(6-((2-azabicyclo[2.1.1]hexan-4-yl)methoxy)pyridin-3-yl)-5-chloro-2-fluorophenyl)-3-oxo-3,5,6,7,8,9-hexahydro-2H-6,9-epiminocyclohepta[c]pyridine-10-carboxamide], the IC50 fell in the range of 500 to 5000 nM.

For `Cn1cc(-c2cc(F)c(NC(=O)N3[C@H]4CC[C@@H]3c3c[nH]c(=O)cc3C4)cc2Cl)ccc1=O` [Compound 30, (6S,9R)-N-(5-chloro-2-fluoro-4-(1-methyl-6-oxo-1,6-dihydropyridin-3-yl)phenyl)-3-oxo-3,5,6,7,8,9-hexahydro-2H-6,9-epiminocyclohepta[c]pyridine-10-carboxamide], the concentration for half-maximal inhibition (IC50) lay in the range of 500 to 5000 nM.

`O=C(Nc1cc(Cl)c(-c2ccc(Nc3cc(Cl)c(-c4ccc(OCC(F)(F)F)nc4)cc3F)nc2)cc1F)N1[C@H]2CC[C@@H]1c1n[nH]c(=O)cc1C2` [Compound 92, (6S,9R)-N-(5-Chloro-4-(6-((5-chloro-2-fluoro-4-(6-(2,2,2-trifluoroethoxy)pyridin-3-yl)phenyl)amino)pyridin-3-yl)-2-fluorophenyl)-3-oxo-3,5,6,7,8,9-hexahydro-2H-6,9-epiminocyclohepta[c]pyridazine-10-carboxamide]: the IC50 was less than 500 nM.

For the compound `CN(C(=O)C(F)(F)F)c1ccc(-c2cc(F)c(NC(=O)N3[C@H]4CC[C@@H]3c3c[nH]c(=O)cc3C4)cc2Cl)cn1` [Compound 31, (6S,9R)-N-(5-chloro-2-fluoro-4-(6-(2,2,2-trifluoro-N-methylacetamido)pyridin-3-yl)phenyl)-3-oxo-3,5,6,7,8,9-hexahydro-2H-6,9-epiminocyclohepta[c]pyridine-10-carboxamide], the IC50 was 500 to 5000 nM.

Consider `O=C(Nc1cc(Cl)c(-c2ccc(OCC(F)(F)F)nc2)cc1F)N1C2CCC1C(F)(F)c1c2ccnc1F` (racemic) [Compound 70, (±)-N-(5-Chloro-2-fluoro-4-(6-(2,2,2-trifluoroethoxy)pyridin-3-yl)phenyl)-1,9,9-trifluoro-6,7,8,9-tetrahydro-5H-5,8-epiminocyclohepta[c]pyridine-10-carboxamide], for which the IC50 was less than 500 nM.

On to `Cn1ncc2cc(-c3cc(F)c(NC(=O)N4[C@H]5CC[C@@H]4c4c[nH]c(=O)cc4C5)cc3Cl)ccc21` [Compound 37, (6S,9R)-N-(5-chloro-2-fluoro-4-(1-methyl-1H-indazol-5-yl)phenyl)-3-oxo-3,5,6,7,8,9-hexahydro-2H-6,9-epiminocyclohepta[c]pyridine-10-carboxamide], for which the IC50 is less than 500 nM.

`O=C(Nc1cc(Cl)c(-c2ccc(OCC3CC3(F)F)nc2)cc1F)N1[C@H]2CC[C@@H]1c1ccnc(F)c1C2` (stereo partly drawn) [Compound 14, (5R,8S)-N-(5-chloro-4-(6-((2,2-difluorocyclopropyl)methoxy)pyridin-3-yl)-2-fluorophenyl)-1-fluoro-6,7,8,9-tetrahydro-5H-5,8-epiminocyclohepta[c]pyridine-10-carboxamide]: the IC50 was less than 500 nM.

`O=C(Nc1cc(Cl)c(-c2ccc3nonc3c2)cn1)N1[C@H]2CC[C@@H]1C(F)(F)c1c2ccnc1F` [Compound 73, (5S,8R)-N-(5-(Benzo[c][1,2,5]oxadiazol-5-yl)-4-chloropyridin-2-yl)-1,9,9-trifluoro-6,7,8,9-tetrahydro-5H-5,8-epiminocyclohepta[c]pyridine-10-carboxamide]: the half-maximal inhibitory concentration (IC50) fell in the range of 500 to 5000 nM.

Take `O=C(Nc1cc(Cl)c(-c2ccc(OC[C@H]3CCOC3)nc2)cc1F)N1[C@H]2CC[C@@H]1c1c[nH]c(=O)cc1C2` (single isomer, unassigned) [Compound 48]: the IC50 was less than 500 nM.

For `O=C(Nc1cc(Cl)c(-c2ccc(OCC3CCC3)nc2)cc1F)N1[C@H]2CC[C@@H]1c1c[nH]c(=O)cc1C2` [Compound 28, (6S,9R)-N-(5-chloro-4-(6-(cyclobutylmethoxy)pyridin-3-yl)-2-fluorophenyl)-3-oxo-3,5,6,7,8,9-hexahydro-2H-6,9-epiminocyclohepta[c]pyridine-10-carboxamide], the IC50 is less than 500 nM.

For `CN(CC(F)(F)F)c1cc(-c2cc(F)c(NC(=O)N3[C@H]4CC[C@@H]3c3c[nH]c(=O)cc3C4)cc2Cl)ccn1` [Compound 43, (6S,9R)-N-(5-chloro-2-fluoro-4-(2-(methyl(2,2,2-trifluoroethyl)amino)pyridin-4-yl)phenyl)-3-oxo-3,5,6,7,8,9-hexahydro-2H-6,9-epiminocyclohepta[c]pyridine-10-carboxamide], the IC50 is less than 500 nM.

With `O=C(Nc1cc(Cl)c(-c2ccc3nonc3c2)cn1)N1[C@@H]2CC[C@H]1C(F)(F)c1c2ccnc1F` [Compound 74, (5R,8S)-N-(5-(Benzo[c][1,2,5]oxadiazol-5-yl)-4-chloropyridin-2-yl)-1,9,9-trifluoro-6,7,8,9-tetrahydro-5H-5,8-epiminocyclohepta[c]pyridine-10-carboxamide], the IC50 was less than 500 nM.
